Experimental data taken from US5594032A, “Amelioration of human erectile dysfunction by treatment with iNOS, inducers of iNOS or iNOS cDNA” (priority 1994, dated 1997).

Experiments:
penile NOS = assay: NOS activity in penile cytosol, (3-H) L-arginine to (3-H) citrulline conversion; format: biochemical, rat; details: cytosol of inducer-treated rats
Method: Six adult rats were implanted with 100 ul pumps for 3 days, and then the pumps were replaced by similar ones with fresh solution as indicated in Example 2. Three animals had the pumps containing the inducer mix and three had saline as a control. At the end of the experiment the animals were anesthetized as indicated above and the penis (including the bulb), liver, and in some animals the cerebellum were surgically removed. The penile head and skin were excised and the organs were stored under liquid nitrogen.
NOS activity was determined from tissue homogenates from two treated and two control rats, not subjected to EFS in order to avoid the interference with residual L-NAME from the in vivo experiments and EFS-induced changes in NOS activity. […] After eliminating the residual (3-H)L-arginine through the resin, (3-H) citrulline was counted in the trichloroacetic acid ether-extracted supernatant. All values were corrected by the radioactivity eluted in time zero incubations.

cNOS, iNOS = details: cited from earlier work
[1] = test system: rat penis smooth muscle cells (RPSMC); assay: Nitrite accumulation in medium of rat penis smooth muscle cell cultures (Greiss reagent); format: cell-based
Method: Primary cultures of RPSMC were initiated from small pieces of penile tissue excised from 3 months old Sprague Dawley rats, utilizing Dulbecco's modified Eagle medium (DMEM) with 20% fetal calf serum, at 37° C. in the presence of 5% CO2. Cells grown from the explants were then transferred to medium with 10% serum, and at the 4th to 10th passage (1:3 splits) they were utilized for the experiments, unless otherwise indicated. Alternatively, cells from the 4-8th passage stored under liquid nitrogen were used to reinitiate the cultures, and used for incubations on the following 2-4 passages. These cultures are considered to consist mainly of smooth muscle cells from the penis based on morphological and cytoimmunochemical criteria.
All experiments were conducted at 90-100% cell confluence on "Primaria" cultureware, usually 24-well plates, adding or not the inducers indicated in each experiment. When not specifically stated, the standard binary induction mix consisted of bacterial lipopolysaccharide (LPS) (10 ug/ml) and recombinant murine […] (INF-θ) (250 U/ml). Other substances to be tested were added as indicated to the serum-containing medium, and the incubation proceeded for the times indicated. The medium was always collected and stored for an indirect measurement of NO production based on the determination of its conversion into nitrites. The procedure was based on the application of the Greiss reagent, using 250 ul of the medium mixed with an equal volume of reagent. Each experimental condition was carried out in triplicate.

Male Fischer 344 rats = assay: Erectile response (maximal intracavernosal pressure) to electrical field stimulation of the cavernosal nerve; format: in vivo, rat; details: for inhibition of the erectile response: sub-optimal dose
Method: Male Fischer 344 rats from three age groups designated "adult" (5-month old), "old" (20 month old), and "very old" (28-32 month old) rats, were anesthetized with an intraperitoneal injection of sodium […] (pentobarbital) at 50 mg/kg. The definition of these age groups in terms of relative aging corresponds to conventional designations for the Fisher 344 strain of rats (maximal life span approximately 34-36 months; optimum breeding activity 2.5-8 months). The adult and very old rats were retired breeders whenever possible. Animals were maintained under controlled lighting and were treated according to NIH regulations. The number of animals in each group for each individual experiment is indicated in the corresponding figure.
A transversal suprapubic skin incision (5 mmm) was done to expose the penis angle and its proximal portion. The right corpora cavernosa was then cannulated with a 27-gauge needle attached to a vinyl tubing (Bolab/bb317-85 Arizona) which was connected with an ALZET^R osmotic pump (Alza Corporation, Palo Alto, Calif.). Each pump (100 or 200 ul reservoir volume, as indicated) contained a mix of E. coli lipopolysaccharide (LPS) at 1 ug/ml, recombinant rat […] (IFN-γ) at 2,500 U/ml, recombinant human tumor necrosis factor-(TNF-α) at 2,500 U/ml, and recombinant human interleukin-1β (IL-1β) at 50 ng/ml.
The needle and the tubing were fixed to the penis peripheral tissues by Mersilene* 6-0 suture and the osmotic pump was placed subcutaneously on the rat abdomen. […] The incision was closed by layer using Dexon* Plus 4-0 suture and the success of the operation was checked all throughout the experiment by observation of a normal recovery and urinary activity. These criteria were completed by verifying the absence of peripheral hematomas or inflammation when the pump was removed. Each pump delivered the inducer mix by osmotic pressure through the catheter directly into the corpora cavernosa, either at 1 ul/hr during 3 days (pump 1003D) or at 0.5 ul/hr during 14 days (pump 2002).
At the completion of each treatment rats were anesthetized as in Example 1 and the erectile response was measured by a modification of a published procedure. Briefly, the cavernosal nerve was surgically exposed and stimulated with a square pulse stimulator connected to a platinum bipolar electrode positioned on the nerve. Through a needle inserted into the cavernosa, the intracavernosal pressure was recorded with a pressure transducer connected to a recorder that was calibrated with a manometer in order to express the response in mm of mercury. The animals were reinjected every 45 min with 35 mg/kg of ketamine for the whole duration of the experiment (about 2-3 hours).
Each rat was submitted to the following sequential treatments done in duplicate: a) electrical field stimulation (EFS) at a frequency of 15 Hz for pulses of 30 sec, separated for 5 min intervals, for the voltage response curve, at […], 2.5, 5 and 10 volts, in this order; b) EFS at 10 volts with the nitric oxide synthase (NOS) inhibitor N -nitro-L-arginine methy ester (L-NAME) at 2 mg/kg, at a single dose per animal, recording 30 min. after injection. In some animals, the systemic blood pressure was measured at the beginning of the experiment, by intrafemoral cannulation and recording as above. Means and standard deviations were determined for the intracavernosal pressure values, and the statistical significance was obtained by the paired Student's t test.

[2] = supplemented with 1 or 10 ug/ml LPS, 48 hr incubation

In the case of N=C(N)NN [aminoguanidine], the “effect on NOS activity in penile cytosol” value (penile NOS; 0.3 mM) is given as “not affected” and the “isoform preference of NOS inhibition” value (cNOS, iNOS; specificity varies with the cell type) is given as “preferential inhibitor for iNOS”.

For N=C(NCCC[C@H](N)C(=O)O)N[N+](=O)[O-] [L-nitroarginine], the “potency as inhibitor of cNOS relative to iNOS” value (cNOS, iNOS) is listed as 1000 fold.

With COC(=O)[C@@H](N)CCCNC(=N)N[N+](=O)[O-] [L-NAME, N-nitro-L-arginine methyl ester] the inhibition at 2000 µM ([1]; Rattus norvegicus, 2 mM, RPSMC treated with standard induction mix, read-out: inhibition of nitrite release) was at most 85%, the “fraction of maximal intracavernosal pressure remaining after L-NAME” value (Male Fischer 344 rats; adult rats treated with inducers, L-NAME 2 mg/kg, EFS 10 volts) was 39% and the “fraction of maximal intracavernosal pressure remaining after L-NAME” value (Male Fischer 344 rats; adult rats without inducer treatment (separate study)) was 62%. For the same molecule, the “fraction of maximal intracavernosal pressure remaining after L-NAME” value (Male Fischer 344 rats; old rats treated with inducers, L-NAME 2 mg/kg, EFS 10 volts) was 18%, the “fraction of maximal intracavernosal pressure remaining after L-NAME” value (Male Fischer 344 rats; old rats without inducer treatment (separate study)) was 30% and the “inhibition of the erectile response” value (Male Fischer 344 rats; non-respondent rats after 14 days inducer treatment) was “normal”. The “inhibition of the erectile response” value (Male Fischer 344 rats; respondent animals after 14 days inducer treatment, three age groups) was “over 95%”, the “fraction of maximal intracavernosal pressure remaining after L-NAME” value (Male Fischer 344 rats; very old rats treated with inducers, L-NAME 2 mg/kg, EFS 10 volts) was 28% and the “fraction of maximal intracavernosal pressure remaining after L-NAME” value (Male Fischer 344 rats; very old rats without inducer treatment (separate study)) was 23%. The “inhibition of NOS activity in penile cytosol” value (penile NOS; 2 mM) was 60-70%.

For “IL-1β: recombinant human interleukin-1 β”, the “effectiveness compared with 500 U/ml INF-θ” value ([1]; 5 ng/ml with 10 ug/ml LPS, 48 hr) was “slightly more effective”.

With TNF-α the “effect on nitrite production” value ([1]; up to 500 u/ml, presence or absence of LPS, 48 hr) was “did not have any effect”.

B1: INF-θ: recombinant murine interferon-θ (in vitro); recombinant rat interferon-θ (IFN-γ) in vivo (protein, UniProt P01580 23-155, looked up)
Interferon gamma: HGTVIESLESLNNYFNSSGIDVEEKSLFLDIWRNWQKDGDMKILQSQIISFYLRLFEVLKDNQAISNNISVIESHLITTFFSNSKAKKDAFMSIAKFEVNNPQVQRQAFNELIRVVHQLLPESSLRKRKRSRC
modifications: rat IFN-gamma used in vivo
For B1, the “nitrites in culture medium, maximum” value ([1]; 50 to 500 U/ml, absence of LPS, 48 hr incubation) was at most 45 µM, the “induction relative to the basal level” value [1, 2] was about 20 fold and the “nitrites in culture medium” value [1, 2] was “up to 120 uM”.
